Data as given in patent US20090047279A1, “(R)-N-Stereoisomers of 7,8-Saturated-4,5-Epoxy-Morphinanium Analogs” (Progenics Pharmaceuticals, Inc., priority 2006, published 2009).
Where a name gives a salt, the structure may show the parent alone.

Assays:
μ-opioid receptors [1] = test: Evaluation of antagonist activity, guinea pig ileum test (responses to DAMGO)
Experimental: (§1) Agonist/antagonist activity at the μ-opioid receptor was determined using the well known guinea pig ileum test. Briefly, an a section of ileum section was placed in a stabilizing solution in a tensed state. Transducers were used to measure changes in tension upon electrical stimulation to the tissue before and after challenge with a potential agonist/antagonist Using a control, constriction inhibition, and constriction inhibition cancellation, may be measured.
(§2) The results are expressed as a percent of the control response to DAMGO (decrease in which contract amplitude)

μ-opioid receptors [2] = test: Evaluation of agonist activity, guinea pig ileum test; details: for Response to the compound + Naloxone (1.0E−07 M): compound 1.0E−04 M + naloxone 1.0E−07 M
Experimental: as §1, §2

[3] = 1.0E−08 M, control DAMGO 1.0E−07 M = 100

SMILES | Responses to DAMGO (1.0E−07 M) in the presence of increasing concentrations of the compounds (μ-opioid receptors [1]; 1.0E−04 M) | Responses to DAMGO (1.0E−07 M) in the presence of increasing concentrations of the compounds (μ-opioid receptors [1]; 1.0E−05 M) | Responses to DAMGO (1.0E−07 M) in the presence of increasing concentrations of the compounds (μ-opioid receptors [1]; 1.0E−06 M) | Responses to DAMGO (1.0E−07 M) in the presence of increasing concentrations of the compounds (μ-opioid receptors [1]; 1.0E−07 M) | Responses to DAMGO (1.0E−07 M) in the presence of increasing concentrations of the compounds (μ-opioid receptors [1]; 1.0E−08 M) | Responses to DAMGO (1.0E−07 M) in the presence of increasing concentrations of the compounds (μ-opioid receptors [1]; 3.0E−05 M) | Responses to DAMGO (1.0E−07 M) in the presence of increasing concentrations of the compounds (μ-opioid receptors [1]; 3.0E−06 M) | Responses to DAMGO (1.0E−07 M) in the presence of increasing concentrations of the compounds (μ-opioid receptors [1]; 3.0E−07 M) | Responses to DAMGO (1.0E−07 M) in the presence of increasing concentrations of the compounds (μ-opioid receptors [1]; 3.0E−08 M) | Responses to increasing concentrations of the compounds (μ-opioid receptors [2]; 1.0E−04 M) | Responses to increasing concentrations of the compounds (μ-opioid receptors [2]; 1.0E−05 M) | Responses to increasing concentrations of the compounds (μ-opioid receptors [2]; 1.0E−06 M) | Responses to increasing concentrations of the compounds (μ-opioid receptors [2]; 1.0E−07 M) | Responses to increasing concentrations of the compounds (μ-opioid receptors [2]; [3]) | Responses to increasing concentrations of the compounds (μ-opioid receptors [2]; 3.0E−05 M) | Responses to increasing concentrations of the compounds (μ-opioid receptors [2]; 3.0E−06 M) | Responses to increasing concentrations of the compounds (μ-opioid receptors [2]; 3.0E−07 M) | Responses to increasing concentrations of the compounds (μ-opioid receptors [2]; 3.0E−08 M) | Response to the compound + Naloxone (1.0E−07 M) (μ-opioid receptors [2]) | other results
CCCOC1C[C@@H](O)[C@@H]2Oc3c(O)ccc4c3[C@@]23CC[N+](C)(CC2CC2)[C@H](C4)[C@]13O (stereo partly drawn) [(R)-CPM, trifluoroacetate] | 22% of the control response to DAMGO | 5% of the control response to DAMGO | 32% of the control response to DAMGO | 90% of the control response to DAMGO | 100% of the control response to DAMGO | 12% of the control response to DAMGO | 11% of the control response to DAMGO | 69% of the control response to DAMGO | 100% of the control response to DAMGO | 22% of the control response to DAMGO | 0% of the control response to DAMGO | 0% of the control response to DAMGO | 0% of the control response to DAMGO | 0% of the control response to DAMGO | 5% of the control response to DAMGO | 0% of the control response to DAMGO | 0% of the control response to DAMGO | 0% of the control response to DAMGO | 17% of the control response to DAMGO | –
C[N@+]1(CC2CCCC2)CC[C@]23c4c5ccc(O)c4O[C@H]2C(=O)CC[C@@]3(O)[C@H]1C5 [(R)-CPTM, (R)-17-cyclopentylmethyl-4,5α-epoxy-3,14-dihydroxy-17-methyl-6-oxomorphinanium iodide] | 40% of the control response to DAMGO | 28% of the control response to DAMGO | 21% of the control response to DAMGO | 84% of the control response to DAMGO | 100% of the control response to DAMGO | 34% of the control response to DAMGO | −1% of the control response to DAMGO | 63% of the control response to DAMGO | 96% of the control response to DAMGO | 18% of the control response to DAMGO | 0% of the control response to DAMGO | 0% of the control response to DAMGO | 0% of the control response to DAMGO | 0% of the control response to DAMGO | 12% of the control response to DAMGO | 0% of the control response to DAMGO | 0% of the control response to DAMGO | 0% of the control response to DAMGO | 18% of the control response to DAMGO | –
C[C@@H](NC(=O)[C@@H](N)Cc1ccc(O)cc1)C(=O)NCC(=O)N(C)[C@@H](Cc1ccccc1)C(=O)NCCO [DAMGO, reference compound] | – | – | – | – | – | – | – | – | – | – | – | 103% of the control response to DAMGO | 96% of the control response to DAMGO | 57% of the control response to DAMGO | – | – | – | – | – | Responses to increasing concentrations of the compounds (μ-opioid receptors [2]; 1.0E−09 M): 9% of the control response to DAMGO; Response to DAMGO + Naloxone (1.0E−07 M) (μ-opioid receptors [2]; DAMGO after the highest concentration, + naloxone 1.0E−07 M): 4% of the control response to DAMGO
